Test results reported in patent publication US12492173B2, “Herbicidal substituted N-tetrazolyl aryl carboxamides” (Bayer Aktiengesellschaft, priority 2019, dated 2025).

How the values were obtained:
Assay type in all cases: in vivo
Matricaria inodora [1] = assay: Pre-emergence herbicidal action, MATIN; set-up: key to Herbicidal action against MATIN: % activity: 100 = plants have died, 0 = like control plants; details: for herbicidal action MATIN: dosage 320 g/ha
Text: (§1) 1. Pre-Emergence Herbicidal Action Against Harmful Plants Seeds of monocotyledonous and dicotyledonous weed plants and crop plants are laid out in sandy loam soil in wood-fiber pots and covered with soil. The compounds of the invention, formulated in the form of wettable powders (WP) or as emulsion concentrates (EC), are then applied to the surface of the covering soil in the form of an aqueous suspension or emulsion at a water application rate equating to 600 to 800 l/ha, with addition of 0.2% wetting agent. After the treatment, the pots are placed in a greenhouse and kept under good growth conditions for the trial plants. The damage to the test plants is scored visually after a test period of 3 weeks by comparison with untreated controls (herbicidal activity in percent (%): 100% activity=the plants have died, 0% activity=like control plants). […] The tables below illustrate, in an exemplary manner, the […] herbicidal action of the compounds according to the invention, the herbicidal activity being stated in percent. [table] In the experiments that follow, herbicidal action of numerous inventive compounds and the known compounds that are structurally closest from D1 (WO 2012/028579 A1) and D2 (WO 2018/202535 A1) were compared under the above-specified conditions by the pre-emergence and post-emergence method. The example numbers given in the tables relate to the compounds disclosed in the respective documents. In addition to the compounds disclosed in D1 and D2, the following compounds V-1 to V-14 that are encompassed by D1 or D2 but are not compounds specified therein were used in the comparative experiments: • V-1: 2-(methylsulfanyl)-3-(methylsulfinyl)-N-(1-methyl-1H-tetrazol-5-yl)-4-(trifluoromethyl)benzamide • V-2: 2-(methylsulfanyl)-3-(methylsulfonyl)-N-(1-methyl-1H-tetrazol-5-yl)-4-(trifluoromethyl)benzamide • V-3: 2,3-bis(ethylsulfanyl)-N-(1-methyl-1H-tetrazol-5-yl)-4-(trifluoromethyl)benzamide • V-4: 2-chloro-3-(ethylsulfanyl)-N-(1-methyl-1H-tetrazol-5-yl)-4-(trifluoromethyl)benzamide • V-5: 2-chloro-4-iodo-3-(methylsulfanyl)-N-(1-methyl-1H-tetrazol-5-yl)benzamide • V-6: 2-chloro-4-iodo-3-(methylsulfinyl)-N-(1-methyl-1H-tetrazol-5-yl)benzamide • V-7: 2-chloro-4-iodo-3-(methylsulfonyl)-N-(1-methyl-1H-tetrazol-5-yl)benzamide • V-8: 2-bromo-3-(methylsulfanyl)-N-(1-methyl-1H-tetrazol-5-yl)-4-(trifluoromethyl)benzamide • V-9: 2-bromo-3-(methylsulfinyl)-N-(1-methyl-1H-tetrazol-5-yl)-4-(trifluoromethyl)benzamide • V-10: 2-bromo-3-(methylsulfonyl)-N-(1-methyl-1H-tetrazol-5-yl)-4-(trifluoromethyl)benzamide • V-11: 2-bromo-3-(ethylsulfanyl)-N-(1-methyl-1H-tetrazol-5-yl)-4-(trifluoromethyl)benzamide • V-12: 2-bromo-3-(ethylsulfinyl)-N-(1-methyl-1H-tetrazol-5-yl)-4-(trifluoromethyl)benzamide • V-13: 2-bromo-3-(ethylsulfonyl)-N-(1-methyl-1-1H-tetrazol-5-yl)-4-(trifluoromethyl)benzamide • V-14: 2-cyclopropyl-3-(ethylsulfanyl)-N-(1-methyl-1H-tetrazol-5-yl)-4-(trifluoromethyl)benzamide Herbicidal Pre-Emergence Action: […]

Setaria viridis = assay: Post-emergence herbicidal action, SETVI; set-up: key: % herbicidal action vs untreated; 100 = plants died, 0 = like control; details: post-emergence
Procedure: (§2) [table] 2. Post-Emergence Herbicidal Action Against Harmful Plants Seeds of monocotyledonous and dicotyledonous weed and crop plants are laid out in sandy loam soil in wood-fiber pots, covered with soil and cultivated in a greenhouse under good growth conditions. 2 to 3 weeks after sowing, the test plants are treated at the one-leaf stage. The compounds of the invention, formulated in the form of wettable powders (WP) or as emulsion concentrates (EC), are then sprayed onto the green parts of the plants in the form of an aqueous suspension or emulsion at a water application rate equating to 600 to 800 l/ha, with addition of 0.2% wetting agent. After the test plants have been left to stand in the greenhouse under optimal growth conditions for about 3 weeks, the action of the preparations is assessed visually in comparison to untreated controls (herbicidal action in percent (%): 100% activity=the plants have died, 0% activity=like control plants). […] The tables below illustrate, in an exemplary manner, the post-emergence herbicidal action of the compounds according to the invention, the herbicidal activity being stated in percent. In the experiments that follow, herbicidal action of numerous inventive compounds and the known compounds that are structurally closest from D1 (WO 2012/028579 A1) and D2 (WO 2018/202535 A1) were compared under the above-specified conditions by the pre-emergence and post-emergence method. The example numbers given in the tables relate to the compounds disclosed in the respective documents. In addition to the compounds disclosed in D1 and D2, the following compounds V-1 to V-14 that are encompassed by D1 or D2 but are not compounds specified therein were used in the comparative experiments: • V-1: 2-(methylsulfanyl)-3-(methylsulfinyl)-N-(1-methyl-1H-tetrazol-5-yl)-4-(trifluoromethyl)benzamide • V-2: 2-(methylsulfanyl)-3-(methylsulfonyl)-N-(1-methyl-1H-tetrazol-5-yl)-4-(trifluoromethyl)benzamide • V-3: 2,3-bis(ethylsulfanyl)-N-(1-methyl-1H-tetrazol-5-yl)-4-(trifluoromethyl)benzamide • V-4: 2-chloro-3-(ethylsulfanyl)-N-(1-methyl-1H-tetrazol-5-yl)-4-(trifluoromethyl)benzamide • V-5: 2-chloro-4-iodo-3-(methylsulfanyl)-N-(1-methyl-1H-tetrazol-5-yl)benzamide • V-6: 2-chloro-4-iodo-3-(methylsulfinyl)-N-(1-methyl-1H-tetrazol-5-yl)benzamide • V-7: 2-chloro-4-iodo-3-(methylsulfonyl)-N-(1-methyl-1H-tetrazol-5-yl)benzamide • V-8: 2-bromo-3-(methylsulfanyl)-N-(1-methyl-1H-tetrazol-5-yl)-4-(trifluoromethyl)benzamide • V-9: 2-bromo-3-(methylsulfinyl)-N-(1-methyl-1H-tetrazol-5-yl)-4-(trifluoromethyl)benzamide • V-10: 2-bromo-3-(methylsulfonyl)-N-(1-methyl-1H-tetrazol-5-yl)-4-(trifluoromethyl)benzamide • V-11: 2-bromo-3-(ethylsulfanyl)-N-(1-methyl-1H-tetrazol-5-yl)-4-(trifluoromethyl)benzamide • V-12: 2-bromo-3-(ethylsulfinyl)-N-(1-methyl-1H-tetrazol-5-yl)-4-(trifluoromethyl)benzamide • V-13: 2-bromo-3-(ethylsulfonyl)-N-(1-methyl-1-1H-tetrazol-5-yl)-4-(trifluoromethyl)benzamide • V-14: 2-cyclopropyl-3-(ethylsulfanyl)-N-(1-methyl-1H-tetrazol-5-yl)-4-(trifluoromethyl)benzamide Herbicidal Pre-Emergence Action: […]

Pharbitis purpurea = assay: Post-emergence herbicidal action, PHBPU; details: for Herbicidal action against PHBPU: post-emergence, dosage 80 g/ha
Procedure: as §2

Echinochloa crus-galli [2] = assay: Pre-emergence herbicidal action, ECHCG; details: for herbicidal action ECHCG: dosage 320 g/ha
Text: as §1

Veronica persica [3] = assay: Post-emergence herbicidal action, VERPE; set-up: key: % herbicidal action vs untreated; 100 = plants died, 0 = like control; details: for Herbicidal action against VERPE: post-emergence
Procedure: as §2

Matricaria inodora [4] = assay: Post-emergence herbicidal action, MATIN; set-up: key: % herbicidal action vs untreated; 100 = plants died, 0 = like control; details: for Herbicidal action against MATIN: post-emergence, dosage 80 g/ha
Procedure: as §2

Amaranthus retroflexus [5] = assay: Pre-emergence herbicidal action, AMARE; set-up: key to Herbicidal action against AMARE: % activity: 100 = plants have died, 0 = like control plants; details: for herbicidal action AMARE: dosage 320 g/ha
Text: as §1

Abutilon theophrasti [6] = assay: Pre-emergence herbicidal action, ABUTH; details: dosage 320 g/ha
Text: as §1

Veronica persica [7] = assay: Pre-emergence herbicidal action, VERPE; set-up: key to Herbicidal action against VERPE: % activity: 100 = plants have died, 0 = like control plants; details: for herbicidal action VERPE: dosage 320 g/ha
Text: as §1

Viola tricolor [8] = assay: Post-emergence herbicidal action, VIOTR; set-up: key: % herbicidal action vs untreated; 100 = plants died, 0 = like control; details: for Herbicidal action against VIOTR: post-emergence
Procedure: as §2

Stellaria media [9] = assay: Pre-emergence herbicidal action, STEME; set-up: key to Herbicidal action against STEME: % activity: 100 = plants have died, 0 = like control plants; details: for herbicidal action STEME: dosage 320 g/ha
Text: as §1

Amaranthus retroflexus [10] = assay: Post-emergence herbicidal action, AMARE; set-up: key: % herbicidal action vs untreated; 100 = plants died, 0 = like control; details: for Herbicidal action against AMARE: post-emergence
Procedure: as §2

Viola tricolor [11] = assay: Pre-emergence herbicidal action, VIOTR; set-up: key to Herbicidal action against VIOTR: % activity: 100 = plants have died, 0 = like control plants; details: for herbicidal action VIOTR: dosage 320 g/ha
Text: as §1

Echinochloa crus-galli [12] = assay: Post-emergence herbicidal action, ECHCG; set-up: key: % herbicidal action vs untreated; 100 = plants died, 0 = like control; details: for Herbicidal action against ECHCG: post-emergence
Procedure: as §2

Stellaria media [13] = assay: Post-emergence herbicidal action, STEME; set-up: key: % herbicidal action vs untreated; 100 = plants died, 0 = like control; details: for Herbicidal action against STEME: post-emergence
Procedure: as §2

Abutilon theophrasti [14] = assay: Post-emergence herbicidal action, ABUTH; set-up: key: % herbicidal action vs untreated; 100 = plants died, 0 = like control; details: for Herbicidal action against ABUTH: post-emergence
Procedure: as §2

Avena fatua = assay: Post-emergence herbicidal action, AVEFA; set-up: key: % herbicidal action vs untreated; 100 = plants died, 0 = like control; details: Dosage 80 g/ha
Procedure: as §2

[15] = comparative experiment, 20 g of a.i./ha
[16] = comparative experiment, 5 g of a.i./ha

Compound | herbicidal action MATIN (Matricaria inodora [1]) [%] | Herbicidal action against SETVI (Setaria viridis; dosage 80 g/ha) | Herbicidal action against PHBPU (Pharbitis purpurea) | herbicidal action ECHCG (Echinochloa crus-galli [2]) [%] | Herbicidal action against VERPE (Veronica persica [3]; dosage 80 g/ha) | Herbicidal action against MATIN (Matricaria inodora [4]) | herbicidal action AMARE (Amaranthus retroflexus [5]) [%] | herbicidal action ABUTH (Abutilon theophrasti [6]) [%] | herbicidal action VERPE (Veronica persica [7]) [%] | Herbicidal action against VIOTR (Viola tricolor [8]; dosage 80 g/ha) | herbicidal action STEME (Stellaria media [9]) [%] | Herbicidal action against AMARE (Amaranthus retroflexus [10]; dosage 80 g/ha) | herbicidal action VIOTR (Viola tricolor [11]) [%] | Herbicidal action against ECHCG (Echinochloa crus-galli [12]; dosage 80 g/ha) | Herbicidal action against STEME (Stellaria media [13]; dosage 80 g/ha) | Herbicidal action against ABUTH (Abutilon theophrasti [14]; dosage 80 g/ha) | other results
COc1c(C(=O)Nc2nnnn2C)ccc(C(F)(F)F)c1CS(C)(=O)=O [Example 1-136] | 90 | 90 | 90 | 100 | 100 | 90 | 100 | 100 | 100 | 90 | 80 | 90 | 80 | 90 | 100 |  | 
CSCc1c(S(C)(=O)=O)ccc(C(=O)Nc2nnnn2C)c1Cl [Example 1-278] |  | 100 | 90 | 90 |  |  | 100 | 90 | 90 | 100 | 80 | 100 |  | 100 | 90 | 90 | 
Cn1nnnc1NC(=O)c1ccc(C(F)(F)F)c(CS(=O)(=O)CC(F)(F)F)c1Cl [Example 1-313] |  | 80 | 90 |  | 80 | 90 | 100 | 100 |  | 80 | 90 | 90 |  |  | 100 | 100 | 
CCn1nnnc1NC(=O)c1ccc(S(C)(=O)=O)c(CSC)c1Cl [Example 2-278] | 90 |  |  |  |  |  | 90 | 100 | 100 |  |  |  |  |  |  |  | herbicidal action PHBPU (Pharbitis purpurea; Dosage 80 g/ha): 80; herbicidal action VERPE (Veronica persica [3]; Dosage 80 g/ha): 100; herbicidal action MATIN (Matricaria inodora [4]; Dosage 80 g/ha): 90; herbicidal action VIOTR (Viola tricolor [8]; Dosage 80 g/ha): 100; herbicidal action AMARE (Amaranthus retroflexus [10]; Dosage 80 g/ha): 90; herbicidal action ABUTH (Abutilon theophrasti [14]; Dosage 80 g/ha): 90; herbicidal action ECHCG (Echinochloa crus-galli [12]; Dosage 80 g/ha): 100; herbicidal action AVEFA (Avena fatua): 100; herbicidal action STEME (Stellaria media [13]; Dosage 80 g/ha): 80
CCCn1nnnc1NC(=O)c1ccc(C)c(CSC)c1Cl [Example 3-287] | 100 |  | 80 | 100 |  | 100 | 100 |  | 90 | 90 | 90 | 100 | 80 | 90 | 100 | 90 | 
CCSc1c(C(=O)Nc2nnnn2C)ccc(C(F)(F)F)c1SCC [Example V-3, 2,3-bis(ethylsulfanyl)-N-(1-methyl-1H-tetrazol-5-yl)-4-(trifluoromethyl)benzamide, reference compound] |  |  |  |  |  |  |  |  |  |  |  |  |  |  |  |  | Herbicidal action against MATIN (Matricaria inodora [1]; [15]): 0; Herbicidal action against SETVI (Setaria viridis; [16]): 0; pest or weed control at 20 g/ha (Echinochloa crus-galli [2]; Echinochloa crus-galli, 504 h, comparative experiment, 20 g of a.i./ha, read-out: Herbicidal action against ECHCG): 0%; Herbicidal action against VERPE (Veronica persica [3]; [16]): 0; Herbicidal action against AMARE (Amaranthus retroflexus [5]; [15]): 0; Herbicidal action against VERPE (Veronica persica [7]; [15]): 0; Herbicidal action against VIOTR (Viola tricolor [8]; [16]): 0; Herbicidal action against STEME (Stellaria media [9]; [15]): 0; Herbicidal action against AMARE (Amaranthus retroflexus [10]; [16]): 0; Herbicidal action against ABUTH (Abutilon theophrasti [14]; [16]): 0; Herbicidal action against VIOTR (Viola tricolor [11]; [15]): 0; Herbicidal action against ECHCG (Echinochloa crus-galli [12]; [16]): 0; Herbicidal action against STEME (Stellaria media [13]; [16]): 0
